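Grown in 96-well plates, cells were treated for 48 hours with each compound at five concentrations. Insufficient inhibition: endpoint recorded as highest concentration tested. GI50 is the concentration that inhibits growth by half.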 Calls of active or inactive are those of the source. Cut-off read from the data, not from the text of the source: active = GI50 up to about 1.1 µM and inactive = higher. Bounds are passed on as bounds.

The text below walks through data of ChEMBL document CHEMBL1201862, “PubChem BioAssay data set” (2004).

Test in all cases: inhibition of tumour cell growth, NCI panel, 48 h
In assay [1] the test system is NCI-H522.
In assay [2] the test system is MDA-N.
Assay [3] relates to K562.
Assay [4] concerns OVCAR-4.
Assay [5] concerns CCRF-CEM.
The test system of assay [6] is CAKI-1.
The subject of assay [7] is T47D.
For assay [8], the system named is MDA-MB-435.
Assay [9] deals with NCI/ADR-RES.
Assay [10] deals with LOX IMVI.
In assay [11] the test system is IGROV-1.
The test system of assay [12] is SK-MEL-5.
Assay [13] has as its system RXF 393.
Assay [14] concerns MOLT-4.
The subject of assay [15] is U-251.
The subject of assay [16] is NCI-H23.
For assay [17], the system named is ACHN.
For assay [18], the system named is SK-MEL-28.
Assay [19] has as its system HCT-15.
Assay [20] deals with SK-MEL-2.

For the compound `O=C(NCCCN(CCCCN(CCCNC(=O)C(F)(F)F)Cc1ccccc1)Cc1ccccc1)C(F)(F)F`, the GI50 was 9.51 µM (inactive) in assay [1]; 15.7 µM (inactive) in assay [2]; 13.7 µM (inactive) in [3]; 16.8 µM (inactive) in assay [4]; 16.2 µM (inactive) in assay [5]; 13.6 µM (inactive) in [6]. The GI50 in [7] was 17.7 µM (inactive); in assay [8], 18.3 µM (inactive); in [9] it was 14.7 µM (inactive); in assay [10] it was 8.43 µM (inactive); in [11] it was 13.4 µM (inactive); in assay [12], 3.39 µM (inactive). Moreover, the GI50 is 14.8 µM (inactive) in assay [13]; 14.7 µM (inactive) in assay [14]; > 10 µM (inactive) in [15]; 15.5 µM (inactive) in assay [16]; 16.5 µM (inactive) in assay [17]; 12.6 µM (inactive) in assay [18]. Further, the GI50 in assay [19] was 12.4 µM.
On to `O=C(O)C1CC2(C1)CC(C(=O)O)C2` (stereo not drawn), for which the GI50 in assay [1], in [2], in [3], in [4], in assay [6] and in assay [7] was > 100 µM (inactive) throughout. Moreover, the GI50 in [8], in assay [20], in assay [9], in assay [10], in assay [11] and in assay [12] was > 100 µM (inactive) in each case. In addition, the GI50 in assay [13], in assay [14], in assay [15], in assay [16], in assay [17] and in assay [18] was > 100 µM (inactive) throughout. The GI50 in assay [19] is greater than 100 µM.
With `CC(C)=NNc1snnc1C(N)=O`, the GI50 in assay [1], in assay [2], in assay [3], in assay [5], in [6] and in assay [7] was > 100 µM (inactive) throughout. For the same compound, the GI50 in assay [8], in assay [20], in assay [9], in assay [10], in assay [11] and in [12] was > 100 µM (inactive) throughout. Besides, the GI50 in assay [13], in assay [14], in assay [15], in assay [16], in [17] and in assay [18] was > 100 µM (inactive) throughout.
Consider `O=C(Nc1ccccc1)c1cc2ccccc2c(/N=N\c2cccc([N+](=O)[O-])c2)c1O`, for which the GI50 in assay [1] is 5.56 µM (inactive); in [2], > 100 µM (inactive); in assay [3], 89.3 µM (inactive); in assay [4] it was 97.5 µM (inactive); in assay [5], > 100 µM (inactive); in assay [6] it was > 100 µM (inactive). The GI50 in assay [7] was > 100 µM (inactive); in assay [8] it was > 100 µM (inactive); in assay [20] it was > 100 µM (inactive); in assay [9] it was > 100 µM (inactive); in [11] it was 37.7 µM (inactive); in assay [12], > 100 µM (inactive). The GI50 in assay [13] was 47.8 µM (inactive); in [14], > 100 µM (inactive); in assay [15], 24.6 µM (inactive); in [16], > 100 µM (inactive); in assay [17] it was 31 µM (inactive); in assay [18], 94.4 µM (inactive). For the same compound, in assay [19], the GI50 is greater than 100 µM.
As for `CC1=C[C@H](O)[C@@]2(C)[C@@H]([C@@H]1C)[C@H]1CC[C@@H]3[C@@]4(C)CC[C@H](O)C(C)(C)[C@@H]4CC[C@@]3(C)[C@]1(C)C[C@@H]2O`, the GI50 in assay [1] is 17.9 µM (inactive); in assay [2], 15.8 µM (inactive); in [3], 19.6 µM (inactive); in assay [4], 17.9 µM (inactive); in assay [5] it was 16.9 µM (inactive); in assay [6], 20.8 µM (inactive). Moreover, the GI50 in assay [7] is 14.3 µM (inactive); in [8], 20.7 µM (inactive); in assay [20], 23.3 µM (inactive); in [9], 19.8 µM (inactive); in [10] it was 21.5 µM (inactive); in assay [11], 20.5 µM (inactive). The GI50 is 16.5 µM (inactive) in assay [12]; 17.6 µM (inactive) in assay [13]; 13.7 µM (inactive) in assay [14]; 20 µM (inactive) in assay [15]; 23.1 µM (inactive) in [16]; 18.3 µM (inactive) in assay [18]. Further, the GI50 in assay [19] was 19 µM.
Consider `CCOC(=O)c1c(SC(=O)c2ccc(OC)cc2)n(-c2ccccc2)c(=S)n(-c2ccccc2)c1=O`, for which the GI50 in assay [1] was 49.4 µM (inactive); in [2], > 100 µM (inactive); in [3], 42.5 µM (inactive); in [4], > 100 µM (inactive); in assay [5], 35.6 µM (inactive); in assay [6] it was > 100 µM (inactive). The GI50 in assay [7] is > 100 µM (inactive); in [8] it was 54.6 µM (inactive); in [9], > 100 µM (inactive); in assay [10], 36.3 µM (inactive); in assay [11] it was 21.1 µM (inactive); in [13] it was 49.3 µM (inactive). Moreover, the GI50 in assay [14] is 22.5 µM (inactive); in [15], 33.6 µM (inactive); in [16], 61.9 µM (inactive); in assay [17], > 100 µM (inactive); in assay [18], > 100 µM (inactive); in assay [19], 23.4 µM.
Take `COc1ccc(-c2c(C(C)=O)c(-c3ccccc3)n(C3OC(CO)C(O)C(O)C3O)c(=S)c2C#N)cc1` (stereo not drawn): the GI50 in [1], in assay [2], in assay [3], in assay [4], in assay [5] and in [6] was > 100 µM (inactive) in each case. The GI50 in [7], in assay [8], in [9], in assay [10], in assay [11] and in assay [12] was > 100 µM (inactive) each time. Also, the GI50 in [13], in assay [14], in assay [15], in assay [16], in [17] and in [18] was > 100 µM (inactive) in each case. In assay [19], this compound returned a GI50 greater than 100 µM.
Regarding `Cc1ccc(/N=C2N=C(Cl)/C(=C\c3ccccc3)N\2)cc1`, the GI50 in [1] is > 100 µM (inactive); in assay [2], 51.9 µM (inactive); in assay [3], 5.52 µM (inactive); in assay [4] it was 65.2 µM (inactive); in [5], > 37.3 µM (inactive); in [6], > 100 µM (inactive). Further, the GI50 was 88.7 µM (inactive) in assay [7]; 30.6 µM (inactive) in assay [8]; > 100 µM (inactive) in assay [20]; > 38.5 µM (inactive) in assay [9]; 3.76 µM (inactive) in assay [10]; > 100 µM (inactive) in assay [11]. For the same compound, the GI50 in assay [12] was 48.8 µM (inactive); in assay [13], > 100 µM (inactive); in [14], 2.33 µM (inactive); in assay [15] it was > 100 µM (inactive); in assay [16] it was > 100 µM (inactive); in assay [18], > 100 µM (inactive). In addition, the GI50 in assay [19] is 2.88 µM.
For the compound `COc1cccc(N(CN2C(=O)CCC2C(=O)O)C(C)=O)c1` (stereo not drawn), the GI50 in assay [1], in assay [2], in assay [3], in assay [4], in assay [6] and in assay [7] was > 100 µM (inactive) in each case. The GI50 in assay [8], in assay [20], in [9], in assay [10], in assay [11] and in assay [12] was > 100 µM (inactive) in each case. Besides, the GI50 in assay [13], in [14], in assay [15], in assay [16], in assay [17] and in [18] was > 100 µM (inactive) each time. Also, the GI50 in assay [19] was greater than 100 µM.
Turning to `COc1ccc2c(c1)CCc1c-2n(CCN2CCOCC2)c2ccc(OC)cc12`, the GI50 was > 100 µM (inactive) in assay [1]; 94.2 µM (inactive) in assay [2]; 14.8 µM (inactive) in assay [3]; > 100 µM (inactive) in assay [4]; 16.4 µM (inactive) in [5]; > 100 µM (inactive) in assay [6]. Further, the GI50 in [7] was > 100 µM (inactive); in assay [8], > 100 µM (inactive); in assay [20], > 100 µM (inactive); in assay [9] it was > 100 µM (inactive); in [11], 80.2 µM (inactive); in [12], 54.7 µM (inactive). Moreover, the GI50 in [13] was > 100 µM (inactive); in [14], 12.5 µM (inactive); in assay [15], > 100 µM (inactive); in assay [16], > 100 µM (inactive); in assay [17], 82.2 µM (inactive); in [18], > 100 µM (inactive). In assay [19], the GI50 was 41 µM.
